Our source for the IC50 and Emax values is patent US20150152080A1, “BENZOTHIOPHENE SULFONAMIDES DERIVATIVES AS CHEMOKINE RECEPTOR MODULATORS” (Allergan, Inc., priority 2013, published 2015).

This assay deals with T1, CCR2 (Homo sapiens, UniProt P41597).
T1 construct: expressed in transfected cells; geneticin and hygromycin selection
Nature of the assay: Calcium activity assay on FLIPR Tetra in HEK-Gqi5 cells stably expressing CCR2. In kind it is cell-based. Conditions: for Emax: read-out: CCR2 ANTAGONISM Rel. Eff. (%). As for the experimental part: HEK-Gqi5 cells stably expressing CCR2 were cultured in DMEM high glucose, 10% FBS, 1% PSA, 400 μg/ml geneticin and 50 μg/ml hygromycin. Appropriate positive control chemokines (MCP-1, MIP1A or RANTES) was used as the positive control agonist for screening compound-induced calcium activity assayed on the FLIPR^Tetra. The drug plates were prepared in 384-well microplates using the EP3 and the MultiPROBE robotic liquid handling systems. Compounds were synthesized and tested for CCR2 activity.

T1 sequence (P41597 whole entry, species assumed): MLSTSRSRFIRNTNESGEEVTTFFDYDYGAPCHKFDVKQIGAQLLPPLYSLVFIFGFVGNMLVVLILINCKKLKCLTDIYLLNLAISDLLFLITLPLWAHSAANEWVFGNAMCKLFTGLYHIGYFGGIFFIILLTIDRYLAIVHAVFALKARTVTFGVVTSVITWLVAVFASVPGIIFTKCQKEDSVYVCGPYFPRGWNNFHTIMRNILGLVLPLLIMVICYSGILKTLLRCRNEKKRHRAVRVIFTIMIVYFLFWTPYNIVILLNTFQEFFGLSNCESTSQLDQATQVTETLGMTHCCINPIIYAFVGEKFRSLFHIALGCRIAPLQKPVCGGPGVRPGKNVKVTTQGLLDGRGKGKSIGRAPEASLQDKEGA

Take `COC(=O)c1ccccc1CSc1ccc(Cl)cc1NS(=O)(=O)c1cc2ccccc2s1` [Compound 1]: the IC50 was determined as 198 nM and the Emax was 86%.

Take `O=C(O)c1ccccc1CSc1ccc(Cl)cc1NS(=O)(=O)c1cc2ccccc2s1` [Compound 2, 2-[({2-[(1-Benzothiophen-2-ylsulfonyl)amino]-4-chlorophenyl}sulfanyl)methyl]benzoic acid]: the IC50 turned out to be 4 nM and the Emax amounted to 100%.

Take `Cc1ccc(SCc2ccccc2C(=O)O)c(NS(=O)(=O)c2cc3ccccc3s2)c1` [Compound 4, 2-[({2-[(1-Benzothiophen-2-ylsulfonyl)amino]-4-methylphenyl}sulfanyl)methyl]benzoic acid]: the Emax was 99%.

Turning to `Nc1cccc(CS(=O)(=O)c2ccc(Cl)cc2NS(=O)(=O)c2cc3ccccc3s2)c1` [Compound 7, N-{2-[(3-Aminobenzyl)sulfonyl]-5-chlorophenyl}-1-benzothiophene-2-sulfonamide], the IC50 stood at 77 nM and the Emax was determined as 98%.

As to `Cc1ccc(NS(=O)(=O)c2cc3ccccc3s2)c(SCc2ccccc2C(=O)O)c1` [Compound 9, 2-[({2-[(1-Benzothiophen-2-ylsulfonyl)amino]-5-methylphenyl}sulfanyl)methyl]benzoic acid], the concentration for half-maximal inhibition (IC50) amounted to 114 nM and the Emax was found to be 88%.

With `O=S(=O)(Nc1cccnc1SCc1ccccc1)c1cc2ccccc2s1` [Compound 10, N-[2-(Benzylsulfanyl)pyridin-3-yl]-1-benzothiophene-2-sulfonamide], the IC50 turned out to be 2250 nM and the Emax turned out to be 44%.

Consider `O=S(=O)(Cc1ccccc1)c1ncccc1NS(=O)(=O)c1cc2ccccc2s1` [Compound 11, N-[2-(Benzylsulfonyl)pyridin-3-yl]-1-benzothiophene-2-sulfonamide], for which the IC50 worked out at 85 nM and the Emax worked out at 93%.

With `O=S(=O)(Nc1cccnc1[S+]([O-])Cc1ccccc1)c1cc2ccccc2s1` (stereo not shown) [Compound 12, N-[2-(Benzylsulfinyl)pyridin-3-yl]-1-benzothiophene-2-sulfonamide], the IC50 was 122 nM and the Emax amounted to 72%.

Regarding `COC(=O)c1ccccc1CSc1ccc(F)cc1NS(=O)(=O)c1cc2ccccc2s1` [Compound 13, methyl 2-[({2-[(1-benzothiophen-2-ylsulfonyl)amino]-4-fluorophenyl}sulfanyl)methyl]benzoate], the IC50 turned out to be 268 nM and the Emax was found to be 68%.

`O=C(O)c1ccccc1CSc1ccc(F)cc1NS(=O)(=O)c1cc2ccccc2s1` [Compound 14, 2-[({2-[(1-benzothiophen-2-ylsulfonyl)amino]-4-fluorophenyl}sulfanyl)methyl]benzoic acid]: the IC50 was under 10 nM and the Emax worked out at 96%.

As a reminder, the IC50 is the concentration that inhibits the measured activity by half.
